Experiments:
NMRI mice = test: formalin test (in-vivo test for analgesic effectiveness); design: key to Mean deviation of the pain reaction compared to control (%) 30–35′ after administration of formalin / Mean deviation of the pain reaction compared to control (%) 20–25′ after administration of formalin: (+): Intensified pain reaction
Procedure: (§1) In each case, the maximum dosage selected for the concentration of azaspiro compounds was held, by a factor of about 2, below the toxic dose previously determined in the IRWIN test (Irwin, Psychopharmacologia 13 (1968) 222).
A reduction in the pain reaction is expressed in negative percentage figures.
1. In-vivo Test for Determining the Analgesic Effectiveness of the Azaspiro Compounds
The test was conducted as described by Wheeler-Aceto (Psychopharmacology 104, 1991, 35).
NMRI mice having a weight of 20-25 g were kept under controlled conditions (22±2° C., 40-70% relative humidity). 25 μl of a 5% formocarbonyl solution was injected in the hind leg and the leg-licking frequency was then clocked for 5 minutes each at defined intervals (20, 30, 40 minutes).
Next, for the formalin test, the test substances were dissolved in a physiological salt solution with 0.5% sodium carboxymethyl cellulose and were each measured in 1-3 dosages that had been applied intraperitoneally 10 minutes before administration of formalin. The comparative reference value was provided by a control excipient (10 ml/kg).
The test was performed in blind fashion on 10 mice per test series. The evaluation was based on a comparison of the treated animals with control excipients at three different times. […] Accordingly, an average 50% reduction of the pain reaction for the treated animals is obtained when in a defined period (e.g. 30-35′ after the formalin injection) the leg-licking duration (averaged over the 10 test animals) is reduced by 50% compared to the untreated animals. The statistical significance was determined using the Mann-Whitney U-test.

[1] = IRWIN test (toxic dose / maximally tolerable dosage); assay type: in vivo
Procedure: as §1, with “FIG. 1 and Table 1 show the reaction of test animals 20-45 minutes after the intraperitoneal administration of selected compounds. In” for “In”
First, the highest possible non-toxic concentration of the respective test substances that could be used was determined by an IRWIN test (Irwin, Psychopharmacologia 13, 1968, 222).

[2] = 4 mg/kg i.p., Test series 2 (n = 10)
[3] = 16 mg/kg i.p., Test series 1 (n = 10)
[4] = 16 mg/kg i.p., Test series 2 (n = 10)
[5] = 32 mg/kg i.p., Test series 1 (n = 10)
[6] = 64 mg/kg i.p., Test series 1 (n = 10)
[7] = 64 mg/kg i.p., Test series 2 (n = 10)
[8] = 32 mg/kg i.p., (n = 10), no test series named
[9] = 8 mg/kg i.p., Test series 1 (n = 10)
[10] = 8 mg/kg i.p., Test series 2 (n = 10)
[11] = 32 mg/kg i.p., Test series 2 (n = 10)

SMILES: O=C1NC(=O)C2(CCCCC2)N1 [SPM 10011, 1,3-diazaspiro[4.5]decane-2,4-dion]
- Mean deviation of the pain reaction compared to control (%) 20–25′ after administration of formalin (NMRI mice; [2]): −62%
- Mean deviation of the pain reaction compared to control (%) 30–35′ after administration of formalin (NMRI mice; [2]): (+)
- Mean deviation of the pain reaction compared to control (%) 20–25′ after administration of formalin (NMRI mice; [3]): −75%
- Mean deviation of the pain reaction compared to control (%) 30–35′ after administration of formalin (NMRI mice; [3]): −11%
- Mean deviation of the pain reaction compared to control (%) 40–45′ after administration of formalin (NMRI mice; [3]): −55%
- Mean deviation of the pain reaction compared to control (%) 20–25′ after administration of formalin (NMRI mice; [4]): −84%
- Mean deviation of the pain reaction compared to control (%) 30–35′ after administration of formalin (NMRI mice; [4]): −21%
- Mean deviation of the pain reaction compared to control (%) 40–45′ after administration of formalin (NMRI mice; [4]): −34%
- Mean deviation of the pain reaction compared to control (%) 20–25′ after administration of formalin (NMRI mice; [5]): −82%
- Mean deviation of the pain reaction compared to control (%) 30–35′ after administration of formalin (NMRI mice; [5]): −64%
- Mean deviation of the pain reaction compared to control (%) 40–45′ after administration of formalin (NMRI mice; [5]): −64%
- Mean deviation of the pain reaction compared to control (%) 20–25′ after administration of formalin (NMRI mice; [6]): −100%
- Mean deviation of the pain reaction compared to control (%) 30–35′ after administration of formalin (NMRI mice; [6]): −100%
- Mean deviation of the pain reaction compared to control (%) 40–45′ after administration of formalin (NMRI mice; [6]): −80%
- Mean deviation of the pain reaction compared to control (%) 20–25′ after administration of formalin (NMRI mice; [7]): −100%
- Mean deviation of the pain reaction compared to control (%) 30–35′ after administration of formalin (NMRI mice; [7]): −100%
- Mean deviation of the pain reaction compared to control (%) 40–45′ after administration of formalin (NMRI mice; [7]): −97%

SMILES: O=C1NCC2(CCCCC2)N1 [SPM 10019, 1,3-diazaspiro[4.5]decane-2-on]
- Mean deviation of the pain reaction compared to control (%) 20–25′ after administration of formalin (NMRI mice; [8]): −52%
- Mean deviation of the pain reaction compared to control (%) 40–45′ after administration of formalin (NMRI mice; [8]): −40%

SMILES: O=C1CC2(CCCCC2)CN1 [GPL, 2-azaspiro[4.5]decan-3-on, reference compound]
- Mean deviation of the pain reaction compared to control (%) 20–25′ after administration of formalin (NMRI mice; [9]): (+)
- Mean deviation of the pain reaction compared to control (%) 30–35′ after administration of formalin (NMRI mice; [9]): (+)
- Mean deviation of the pain reaction compared to control (%) 20–25′ after administration of formalin (NMRI mice; [10]): −58%
- Mean deviation of the pain reaction compared to control (%) 30–35′ after administration of formalin (NMRI mice; [10]): −18%
- Mean deviation of the pain reaction compared to control (%) 40–45′ after administration of formalin (NMRI mice; [10]): −15%
- Mean deviation of the pain reaction compared to control (%) 20–25′ after administration of formalin (NMRI mice; [3]): (+)
- Mean deviation of the pain reaction compared to control (%) 30–35′ after administration of formalin (NMRI mice; [3]): (+)
- Mean deviation of the pain reaction compared to control (%) 20–25′ after administration of formalin (NMRI mice; [4]): −74%
- Mean deviation of the pain reaction compared to control (%) 30–35′ after administration of formalin (NMRI mice; [4]): −40%
- Mean deviation of the pain reaction compared to control (%) 40–45′ after administration of formalin (NMRI mice; [4]): −41%
- Mean deviation of the pain reaction compared to control (%) 20–25′ after administration of formalin (NMRI mice; [5]): (+)
- Mean deviation of the pain reaction compared to control (%) 30–35′ after administration of formalin (NMRI mice; [5]): −10%
- Mean deviation of the pain reaction compared to control (%) 20–25′ after administration of formalin (NMRI mice; [11]): −64%
- Mean deviation of the pain reaction compared to control (%) 30–35′ after administration of formalin (NMRI mice; [11]): −15%
- Mean deviation of the pain reaction compared to control (%) 40–45′ after administration of formalin (NMRI mice; [11]): −46%
- side effects above the maximally tolerable dosages (sedation, tremor, hypothermia) [1]: significant lethality rate

SMILES: S=C1NC(=S)C2(CCCCC2)N1 [SPM 10013, 1,3-diazaspiro[4.5]decane-2,4-dithion]
- Mean deviation of the pain reaction compared to control (%) 20–25′ after administration of formalin (NMRI mice; [3]): −60%
- Mean deviation of the pain reaction compared to control (%) 30–35′ after administration of formalin (NMRI mice; [3]): −14%
- Mean deviation of the pain reaction compared to control (%) 40–45′ after administration of formalin (NMRI mice; [3]): −49%
- Mean deviation of the pain reaction compared to control (%) 20–25′ after administration of formalin (NMRI mice; [5]): −82%
- Mean deviation of the pain reaction compared to control (%) 30–35′ after administration of formalin (NMRI mice; [5]): −60%
- Mean deviation of the pain reaction compared to control (%) 40–45′ after administration of formalin (NMRI mice; [5]): −30%
- Mean deviation of the pain reaction compared to control (%) 20–25′ after administration of formalin (NMRI mice; [6]): −98%
- Mean deviation of the pain reaction compared to control (%) 30–35′ after administration of formalin (NMRI mice; [6]): −95%
- Mean deviation of the pain reaction compared to control (%) 40–45′ after administration of formalin (NMRI mice; [6]): −78%

From patent publication US7282515B2, “Derivatives of azaspiro compounds for the treatment of pain” (Schwarz Pharma AG, priority 2002, dated 2007)
